The target in experiment [1] is T1, BRD4 BD2 (Homo sapiens, UniProt O60885).
T1 construct: made in house
The experiment in a line: AlphaScreen binding assay, BRD4 Bromodomain 2. In outline: (§1)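 An AlphaScreen competition format was used with His-BRD4 BD1 or BD2 and biotin-H4 K5/8/12/16-acetyl peptide, each at matched final levels of 50 nM (BD1) or 100 nM (BD2). Incubation in HEPES/NaCl buffer with 0.1% BSA and 0.01% Triton X-100 ran ≥1 h before IC50 determination.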

The test system of experiment [2] is MV4-11 cells. The experiment in a line: Oncology cell growth assay (3-day proliferation, CellTiter-Glo). Type of experiment: cell-based. The conditions noted are these: Homo sapiens, MV4-11, 72 h, AML cell line MV4-11, 72 hours, compounds grouped by IC50 range, read-out: MV4-11 IC50 (inhibition of proliferation, gIC50). In outline: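 Compounds were serially diluted 3-fold in DMSO, giving final well concentrations from 10 down to 0.0045 μM. MV4-11 cells were then seeded at 3000 cells/well in RPMI 1640 with 10% FBS and incubated 72 hours. CellTiter-Glo signal was measured and gIC50 obtained by four-parameter logistic regression.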

Experiment [3] addresses T2, BRD4 BD1 (Homo sapiens, UniProt O60885).
T2 construct: made in house
The experiment in a line: AlphaScreen binding assay, BRD4 Bromodomain 1. Put shortly: as §1

Structures are written as SMILES. Some results are limits rather than exact numbers.

In the case of `CC(=O)N1c2ccc(-c3cnn(C4COC4)c3)cc2N(C(=O)OC2CC(F)(F)C2)C[C@@H]1C` [Example I-65, (S)-3,3-difluorocyclobutyl 4-acetyl-3-methyl-7-(1-(oxetan-3-yl)-1H-pyrazol-4-yl)-3,4-dihydroquinoxaline-1(2H)-carboxylate], the figures for the IC50 in experiment [1], in experiment [2] and in experiment [3] were less than 50 nM, 100 to 500 nM and less than 100 nM, respectively.
For `CC(=O)N1c2ccc(-c3ccc(NS(C)(=O)=O)c(F)c3)cc2N(C(=O)C2CCC2)C[C@@H]1C` [Example I-1181], the IC50 was 50 to 500 nM in experiment [1], more than 500 nM in experiment [2] and 1000 to 10000 nM in experiment [3].
For `CC(=O)N1c2ccc(-c3ccc(S(=O)(=O)CC(C)C)cc3)cc2N(C(=O)C2CCC2)C[C@@H]1C` [Example I-1079], the IC50 in experiment [1] is 50 to 500 nM; in experiment [2], more than 500 nM; in experiment [3], 1000 to 10000 nM.
For `CC(=O)N1c2ccc(-c3cnn(CCO)c3)cc2N(C(=O)OC(C)C)C[C@@H]1C` [Example I-12, (S)-isopropyl 4-acetyl-7-(1-(2-hydroxyethyl)-1H-pyrazol-4-yl)-3-methyl-3,4-dihydroquinoxaline-1(2H)-carboxylate], the IC50 is less than 50 nM in experiment [1], 100 to 500 nM in experiment [2] and less than 100 nM in experiment [3].
On to `C[C@H]1CN(C(=O)OCC2CC2)c2cc(-c3cnn(C4CC4)c3)ccc2N1C(=O)C1CC1` [Example I-995], for which the IC50 in experiment [1] fell in the range of 50 to 500 nM; in experiment [2] it was 100 to 500 nM; in experiment [3], 100 to 1000 nM.
On to `CC(=O)N1c2ccc(-c3cnn(CCn4ccnc4)c3)cc2N(C(=O)OC(C)C)C[C@@H]1C` [Example I-598], for which the IC50 in experiment [1] was in the range of 50 to 500 nM; in experiment [2] it was 100 to 500 nM; in experiment [3], 100 to 1000 nM.
Taken in the same sequence, the figures for `CC(=O)N1c2ccc(-c3cnn(CC4(CO)COC4)c3)cc2N(C(=O)OC(C)C)C[C@@H]1C` [Example I-600] were less than 50 nM, 100 to 500 nM and less than 100 nM.
Taken in the same sequence, the figures for `CCOC(=O)N1C[C@H](C)N(C(C)=O)c2ccc(-c3cccc(S(=O)(=O)NCCO)c3)cc21` [Example I-1110] were 50 to 500 nM, 100 to 500 nM and 1000 to 10000 nM.
`CC(=O)N1c2ccc(-c3cnn(Cc4noc(C)n4)c3)cc2N(C(=O)C2CC2)C[C@@H]1C` [Example I-668]: the IC50 lay in the range of 50 to 500 nM in experiment [1], 100 to 500 nM in experiment [2] and 100 to 1000 nM in experiment [3].
Regarding `CC(=O)N1c2ccc(-c3ccc(S(=O)(=O)CC4CC4)cc3)cc2N(C(=O)C2CCC2)C[C@@H]1C` [Example I-1075], the results for the IC50 in experiment [1], in experiment [2] and in experiment [3] were 50 to 500 nM, more than 500 nM and 1000 to 10000 nM, respectively.
As to `CC(=O)N1c2ccc(-c3ccc(F)c(S(C)(=O)=O)c3)cc2N(C(=O)C2CCC2)C[C@@H]1C` [Example I-1099], the figures for the IC50 in experiment [1], in experiment [2] and in experiment [3] were 50 to 500 nM, more than 500 nM and 1000 to 10000 nM, respectively.
As for `CC(=O)N1c2ccc(-c3cnn(C4CC4)c3)cc2N(C(=O)Oc2cccc3ccc(C)nc23)C[C@@H]1C` [Example I-515], the values for the IC50 in experiment [1], in experiment [2] and in experiment [3] were 50 to 500 nM, less than 100 nM and 100 to 1000 nM, respectively.
Regarding `CC(=O)N1c2ccc(-c3cnn(C4CS(=O)(=O)C4)c3)cc2N(C(=O)OC2CCCC2)C[C@@H]1C` [Example I-1307], the IC50 in experiment [1] is less than 50 nM; in experiment [2], 100 to 500 nM; in experiment [3], 100 to 1000 nM.
For `CC(=O)N1c2ccc(-c3ccc(S(=O)(=O)C4CC4)cc3)cc2N(C(=O)OC2CCOCC2)C[C@@H]1C` [Example I-1216] the same measures were 50 to 500 nM, 100 to 500 nM and 100 to 1000 nM.
Regarding `CC(=O)N1c2ccc(-c3cnn(Cc4ccccc4)c3)cc2N(C(=O)c2ccco2)C[C@@H]1C` [Example I-409], the values for the IC50 in experiment [1], in experiment [2] and in experiment [3] were less than 50 nM, less than 100 nM and 100 to 1000 nM, respectively.
In the case of `CCN(CC)S(=O)(=O)c1cc(-c2ccc3c(c2)N(C(=O)OC2CCCCC2)C[C@H](C)N3C(C)=O)ccc1OC` [Example I-1257], the figures for the IC50 in experiment [1], in experiment [2] and in experiment [3] were 50 to 500 nM, 100 to 500 nM and 100 to 1000 nM, respectively.
Taken in the same sequence, the figures for `CC(=O)N1c2ccc(-c3ccc(NC(=O)N4CCOCC4)cc3)cc2N(C(=O)c2ccco2)C[C@@H]1C` [Example I-285] were less than 50 nM, 100 to 500 nM and 1000 to 10000 nM.
As to `CC(=O)N1c2ccc(-c3cccc(NS(C)(=O)=O)c3)cc2N(C(=O)C2CC2)C[C@@H]1C` [Example I-1043], the IC50 is 50 to 500 nM in experiment [1], more than 500 nM in experiment [2] and 1000 to 10000 nM in experiment [3].
Turning to `COc1cccc(OC(=O)N2C[C@H](C)N(C(C)=O)c3ccc(-c4cnn(C5CC5)c4)cc32)c1` [Example I-500], the IC50 lay within 50 to 500 nM in experiment [1], 100 to 500 nM in experiment [2] and 100 to 1000 nM in experiment [3].
Regarding `CC(=O)N1c2ccc(-c3cn[nH]c3)cc2N(C(=O)Oc2ccccc2)C[C@@H]1C` [Example I-16, (S)-phenyl 4-acetyl-3-methyl-7-(1H-pyrazol-4-yl)-3,4-dihydroquinoxaline-1(2H)-carboxylate], the values for the IC50 in experiment [1], in experiment [2] and in experiment [3] were less than 50 nM, less than 100 nM and 100 to 1000 nM, respectively.
Taken in the same sequence, the figures for `CC(=O)N1c2ccc(-c3ccc(C(=O)N(C)CC(=O)N(C)C)cc3)cc2N(C(=O)OC(C)C)C[C@@H]1C` [Example I-550] were 50 to 500 nM, 100 to 500 nM and less than 100 nM.
On to `CC(=O)N1c2ccc(-c3cnn(CC(=O)N4CCC4)c3)cc2N(C(=O)OC(C)C)C[C@@H]1C` [Example I-667], for which the values for the IC50 in experiment [1], in experiment [2] and in experiment [3] were 50 to 500 nM, 100 to 500 nM and 100 to 1000 nM, respectively.
For `CC(=O)N1c2ccc(-c3cnn(C4CC4)c3)cc2N(C(=O)Oc2cccc3ncccc23)C[C@@H]1C` [Example I-1191] the same measures were less than 50 nM, 100 to 500 nM and 100 to 1000 nM.
For `CC(=O)N1c2ccc(-c3cnn(C4CC4)c3)cc2N(C(=O)OC2CCCC2)C[C@@H]1C` [Example I-23, (S)-cyclopentyl 4-acetyl-7-(1-cyclopropyl-1H-pyrazol-4-yl)-3-methyl-3,4-dihydroquinoxaline-1(2H)-carboxylate] the same measures were 50 to 500 nM, less than 100 nM and less than 100 nM.
Take `CC(=O)N1c2ccc(-c3ccc(C(=O)N4C[C@H]5CCN(C)[C@H]5C4)cc3)cc2N(C(=O)OC(C)C)C[C@@H]1C` [Example I-555]: the IC50 is 50 to 500 nM in experiment [1], less than 100 nM in experiment [2] and 100 to 1000 nM in experiment [3].
As for `CCOC(=O)N1C[C@H](C)N(C(C)=O)c2ccc(-c3ccc(S(N)(=O)=O)cc3)cc21` [Example I-1068], the results for the IC50 in experiment [1], in experiment [2] and in experiment [3] were 50 to 500 nM, more than 500 nM and 1000 to 10000 nM, respectively.
Taken in the same sequence, the figures for `CC(=O)N1c2ccc(-c3cnn(C4CC4)c3)cc2N(C(=O)Oc2ccc(Cl)cc2C)C[C@@H]1C` [Example I-267] were less than 50 nM, 100 to 500 nM and 100 to 1000 nM.
Consider `CC(=O)N1c2ccc(-c3ccc(C(=O)N4CCCN(C)CC4)cc3)cc2N(C(=O)OC(C)C)C[C@@H]1C` [Example I-553], for which the figures for the IC50 in experiment [1], in experiment [2] and in experiment [3] were 50 to 500 nM, less than 100 nM and 100 to 1000 nM, respectively.

Source of the values: patent US10703764B2, “Benzopiperazine compositions as BET bromodomain inhibitors” (FORMA Therapeutics, Inc., priority 2013, dated 2020).
